The values below come from US20200329707A1, “PYRAZOLAMIDE COMPOUND HAVING INSECTICIDAL ACTIVITY AND USE THEREOF” (JIANGSU FLAG CHEMICAL INDUSTRY CO., LTD., priority 2017, published 2020).

Type in all cases: in vivo
The subject of experiment [1] is Frankliniella intonsa. Briefly: Insecticidal effect on Frankliniella intonsa, treated filter paper in petri dish. The note with it: 60 ppm reagent solution; nymphs; 72 hrs. The protocol: (§1) The test reagents were all individually dissolved in a mixed solvent of acetone:[…] (1:1) to give a 1000 mg/L solution. 1% Tween-80 was added as an emulsifier to each solution. These solutions were then diluted with 1% Tween-20 solution in water to give desired concentrations of test solutions. An aqueous solution containing 1% Tween-20 was used as a control.
On the bottom of a glass petri dish with a diameter of 6 cm, a piece of filter paper with the same diameter was laid. 1 mL of the reagent solution was drawn by a pipette and uniformly dripped on the filter paper. After the acetone was volatilized, Nymphs of Frankliniella intonsa were transferred from Bombax ceiba with a brush pen to the filter paper in the petri dish. After 0.5-1 h when the insect body was fully covered with the reagent, 3 cm-long petals of Bombax ceiba were placed and the Petri dish were covered. 3 replicates were set for each treatment. After the insects were inoculated, the petri dish was placed in an insect-cultivating chamber at 25° C. with a 16-h-light/8-h-dark photoperiod. 72 hrs after the insects were inoculated, the deaths of Frankliniella intonsa were investigated to calculate the mortality.

Experiment [2] deals with Helicoverpa armigera. The experiment can be described thus: Insecticidal effect on Helicoverpa armigera, immersed cabbage leaf discs in 24-well plate. The note with it: foliar, 72 h, read-out: Insecticidal activity (%) on Helicoverpa armigera (mortality %). Here is the method:
as §1
Third instar larvae of Helicoverpa armigera were used, and the insecticidal effect test was carried out by feeding with leaves immersed with various compounds. The cabbage leaves that had not been exposed to insecticides were punched into leaf discs having a diameter of […]. The leaf discs were immersed in each compound solution for 30 s. Then the leaf discs were placed on absorbent paper and air-dried until there were no obvious water stains on the leaf discs. A washed 24-well plate was prepared, and about 1 ml of water agar medium was fed to each well. After solidification, the treated leaf discs were placed on the medium in the 24-well plate, and then 1 3rd-instar larva of Helicoverpa armigera was inoculated into each well. The 24-well plate was covered after inoculation, placed in an insect cultivating chamber at 25° C. with a 16-h-light/8-h-dark photoperiod. The number of deaths in 3 days was investigated, and the mortality was calculated.

Experiment [3] concerns Spodoptera litura. The experiment can be described thus: Insecticidal effect on Spodoptera litura, feeding with immersed cabbage leaf discs. The note with it: 40 ppm reagent solution; 3rd instar larvae; deaths in 5 days. The protocol:
as §1
Third instar larvae of Spodoptera litura were used, and the insecticidal effect test was carried out by feeding with leaves immersed with various compounds. The cabbage leaves that had not been exposed to insecticides were cut into leaf discs of about 40 square-mm with scissors. The leaf discs were immersed in each compound solution for 30 s. Then the leaf discs were placed on absorbent paper and air-dried until there were no obvious water stains on the leaf discs. The leaf discs soaked with the reagents were placed in a petri dish (7 cm), each petri dish having 3 leaf discs. The 3rd instar larvae of Spodoptera litura raised on the indoor cabbage plants were gently picked up with a pen brush and placed on the leaf discs in the petri dish, each petri dish having 10-15 insects. After the insects were inoculated, the petri dish was covered, and placed in an insect-cultivating chamber at 25° C. with a 16-h-light/8-h-dark photoperiod. The number of deaths in 5 days was investigated, and the mortality was calculated.

As a reminder, the mortality is the share of the test organisms that died. For the compound `Cc1cc(Cl)cc(C(=O)NC(C)(C)C(N)=O)c1NC(=O)c1cc(Br)nn1-c1ncccc1Cl` [Compound 1.1, N-(2-N-((1-amino-2-methyl-1-acylpropan-2-yl)-formyl)-4-chloro-6-methylphenyl)-1-(3-chloropyridin-2-yl)-3-bromo-1H-pyrazol-5-carboxamide], the “control effect on Frankliniella intonsa” value in experiment [1] is listed as “more than 80%”. For the same compound, in experiment [2], the mortality at 5 ppm stood at 75% and the mortality at 15 ppm turned out to be 87.5%. Moreover, in experiment [3], the “control effect on Spodoptera litura” value was “more than 80%”.
On to `CC(C)(NC(=O)c1cc(Cl)cc(Cl)c1NC(=O)c1cc(Cl)nn1-c1ncccc1Cl)C(N)=O` [KC1], for which, in experiment [2], the mortality at 5 ppm turned out to be 10% and the mortality at 15 ppm is 46.7%.
On the same counts, the results for `CC(C)(NC(=O)c1cc(Cl)cc(Cl)c1NC(=O)c1cc(Br)nn1-c1ncccc1Cl)C(N)=O` [KC2] are 16.7% and 37.5%.
